Data reported in ChEMBL document CHEMBL1201862, “PubChem BioAssay data set” (2004).
Active and inactive are the calls of the source.

Legend:
[1] = target: T1, Tyrosine-protein phosphatase non-receptor type 22 (Homo sapiens, UniProt Q9Y2R2); type: functional
[2] = target: T2, Tyrosine-protein phosphatase non-receptor type 7 (Homo sapiens, UniProt P35236); type: functional
T2 sequence (P35236 whole entry): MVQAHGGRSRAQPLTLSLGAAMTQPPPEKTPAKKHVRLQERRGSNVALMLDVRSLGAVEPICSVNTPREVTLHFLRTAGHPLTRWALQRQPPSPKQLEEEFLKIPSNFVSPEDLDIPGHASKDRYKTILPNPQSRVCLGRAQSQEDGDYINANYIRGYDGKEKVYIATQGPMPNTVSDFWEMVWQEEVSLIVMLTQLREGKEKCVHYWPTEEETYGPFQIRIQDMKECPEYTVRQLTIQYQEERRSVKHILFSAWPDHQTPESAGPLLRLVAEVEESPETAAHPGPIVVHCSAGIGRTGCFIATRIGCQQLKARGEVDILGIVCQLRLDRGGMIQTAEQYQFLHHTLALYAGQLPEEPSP

[3] = target: T1, Tyrosine-protein phosphatase non-receptor type 22; type: functional; remark: listed apart in the source
[4] = target: T3, Heat shock factor protein 1 (Mus musculus, UniProt P38532); test: HSF1 potentiators in luciferase reporter cells, confirmation, cell-based, NIH3T3, luminescence, dose retest (AID 435004); type: functional;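 further: stress induced by proteasome inhibitor MG132 added 30 min after compound; luciferase reporter driven by HSF1 response element in NIH3T3 cells; actives raise luminescence as potentiators of the MG132 stress response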
T3 sequence (P38532 whole entry): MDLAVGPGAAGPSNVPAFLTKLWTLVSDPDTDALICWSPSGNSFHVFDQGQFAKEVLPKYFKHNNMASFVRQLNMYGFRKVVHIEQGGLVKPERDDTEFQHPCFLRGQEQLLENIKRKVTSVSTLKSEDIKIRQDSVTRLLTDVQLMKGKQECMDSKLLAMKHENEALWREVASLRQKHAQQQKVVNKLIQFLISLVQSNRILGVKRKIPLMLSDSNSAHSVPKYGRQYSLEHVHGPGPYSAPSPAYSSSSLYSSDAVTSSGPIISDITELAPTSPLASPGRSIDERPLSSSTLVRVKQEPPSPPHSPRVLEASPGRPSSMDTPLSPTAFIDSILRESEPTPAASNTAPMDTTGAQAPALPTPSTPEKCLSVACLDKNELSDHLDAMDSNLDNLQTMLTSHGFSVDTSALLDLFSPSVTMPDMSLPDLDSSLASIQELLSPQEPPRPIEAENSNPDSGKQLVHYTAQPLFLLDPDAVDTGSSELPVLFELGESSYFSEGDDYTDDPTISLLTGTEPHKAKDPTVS

[5] = inhibitors of intracellular T. cruzi replication, confirmation, NIH3T3 host cells, beta-gal luminescence (AID 2044); type: functional, cell-based;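 further: intracellular parasites grown in NIH/3T3 mouse fibroblasts as host cells; luminescent beta-galactosidase reporter signal from transgenic T. cruzi replicating inside host cells; inhibitors lower the luminescence signal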
[6] = target: T4, Delta-type opioid receptor (Homo sapiens, UniProt P41143); test: HTS Image-Based Screen for Agonists of the DOR Receptor. [Related pubchem assays (depositor defined):AID1777, AID1786, AID2133]; type: functional
T4 sequence (P41143 whole entry): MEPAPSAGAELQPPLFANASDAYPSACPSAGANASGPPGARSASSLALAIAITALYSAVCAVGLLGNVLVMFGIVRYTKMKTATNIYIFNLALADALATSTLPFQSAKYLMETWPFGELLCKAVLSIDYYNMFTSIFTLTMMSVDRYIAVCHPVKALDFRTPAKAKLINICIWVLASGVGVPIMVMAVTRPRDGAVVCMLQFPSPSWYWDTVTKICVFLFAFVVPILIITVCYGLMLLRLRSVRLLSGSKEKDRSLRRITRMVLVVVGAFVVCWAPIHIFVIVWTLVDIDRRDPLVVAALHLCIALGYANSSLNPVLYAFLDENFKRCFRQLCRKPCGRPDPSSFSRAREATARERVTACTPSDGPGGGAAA

[7] = Luminescence Cell-Based Dose Response HTS to Identify Inhibitors of 5'UTR Stem-Loop Driven Prion Protein mRNA Translation in H4 Neuroglioblastoma Cells. [Related pubchem assays: 1827 (Project Summary), 1813 (Primary HTS)]; type: functional
[8] = target: Mu-type opioid receptor (Homo sapiens, UniProt P35372); test: HTS Image-Based Screen for Agonists of the MOR Receptor. [Related pubchem assays (depositor defined):AID1777, AID1785, AID1786, AID2133]; type: functional;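 further: imaging of beta-arrestin GFP recruitment into spots after receptor activation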
Sequence of Mu-type opioid receptor (P35372 whole entry): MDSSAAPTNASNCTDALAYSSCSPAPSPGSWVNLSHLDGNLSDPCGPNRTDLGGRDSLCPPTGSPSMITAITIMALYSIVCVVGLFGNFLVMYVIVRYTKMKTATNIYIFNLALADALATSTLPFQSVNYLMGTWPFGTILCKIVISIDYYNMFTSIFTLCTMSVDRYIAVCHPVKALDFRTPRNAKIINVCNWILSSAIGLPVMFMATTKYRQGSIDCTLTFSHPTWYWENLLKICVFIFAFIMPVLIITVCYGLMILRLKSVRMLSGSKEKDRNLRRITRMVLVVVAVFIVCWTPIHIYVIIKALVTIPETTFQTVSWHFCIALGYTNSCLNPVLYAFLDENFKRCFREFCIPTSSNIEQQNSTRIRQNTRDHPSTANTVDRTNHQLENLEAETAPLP

[9] = cytotoxicity toward NIH3T3 fibroblasts, dose response, counter-screen, cell-based, ATP luminescence, mouse fibroblasts (AID 2010); type: functional;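 further: cells exposed to compound for about 90 hours before reading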
[10] = target: T5, Kappa-type opioid receptor (Homo sapiens, UniProt P41145); type: functional
T5 sequence (P41145 whole entry): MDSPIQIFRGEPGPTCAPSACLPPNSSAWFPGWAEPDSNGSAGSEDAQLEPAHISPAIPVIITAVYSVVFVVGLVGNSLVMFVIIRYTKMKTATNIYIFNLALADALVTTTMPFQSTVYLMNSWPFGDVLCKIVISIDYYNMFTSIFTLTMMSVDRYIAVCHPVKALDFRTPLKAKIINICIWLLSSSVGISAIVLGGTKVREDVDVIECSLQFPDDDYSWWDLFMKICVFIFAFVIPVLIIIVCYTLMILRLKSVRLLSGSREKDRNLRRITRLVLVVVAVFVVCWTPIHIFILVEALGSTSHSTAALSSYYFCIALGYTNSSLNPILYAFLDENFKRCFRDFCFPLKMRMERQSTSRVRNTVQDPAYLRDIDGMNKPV

[11] = inhibitors of firefly luciferase expression or activity, dose response, H4 neuroglioma cells, luminescence (AID 1990); type: functional, cell-based
[12] = inhibitors of SNCA 5'UTR-driven reporter translation, confirmation, H4 neuroglioma cells, luminescence (AID 1988); type: functional, cell-based
[13] = target: Beta-galactosidase (Escherichia coli, UniProt Q8VNN2); type: functional
Sequence of Beta-galactosidase (Q8VNN2 whole entry): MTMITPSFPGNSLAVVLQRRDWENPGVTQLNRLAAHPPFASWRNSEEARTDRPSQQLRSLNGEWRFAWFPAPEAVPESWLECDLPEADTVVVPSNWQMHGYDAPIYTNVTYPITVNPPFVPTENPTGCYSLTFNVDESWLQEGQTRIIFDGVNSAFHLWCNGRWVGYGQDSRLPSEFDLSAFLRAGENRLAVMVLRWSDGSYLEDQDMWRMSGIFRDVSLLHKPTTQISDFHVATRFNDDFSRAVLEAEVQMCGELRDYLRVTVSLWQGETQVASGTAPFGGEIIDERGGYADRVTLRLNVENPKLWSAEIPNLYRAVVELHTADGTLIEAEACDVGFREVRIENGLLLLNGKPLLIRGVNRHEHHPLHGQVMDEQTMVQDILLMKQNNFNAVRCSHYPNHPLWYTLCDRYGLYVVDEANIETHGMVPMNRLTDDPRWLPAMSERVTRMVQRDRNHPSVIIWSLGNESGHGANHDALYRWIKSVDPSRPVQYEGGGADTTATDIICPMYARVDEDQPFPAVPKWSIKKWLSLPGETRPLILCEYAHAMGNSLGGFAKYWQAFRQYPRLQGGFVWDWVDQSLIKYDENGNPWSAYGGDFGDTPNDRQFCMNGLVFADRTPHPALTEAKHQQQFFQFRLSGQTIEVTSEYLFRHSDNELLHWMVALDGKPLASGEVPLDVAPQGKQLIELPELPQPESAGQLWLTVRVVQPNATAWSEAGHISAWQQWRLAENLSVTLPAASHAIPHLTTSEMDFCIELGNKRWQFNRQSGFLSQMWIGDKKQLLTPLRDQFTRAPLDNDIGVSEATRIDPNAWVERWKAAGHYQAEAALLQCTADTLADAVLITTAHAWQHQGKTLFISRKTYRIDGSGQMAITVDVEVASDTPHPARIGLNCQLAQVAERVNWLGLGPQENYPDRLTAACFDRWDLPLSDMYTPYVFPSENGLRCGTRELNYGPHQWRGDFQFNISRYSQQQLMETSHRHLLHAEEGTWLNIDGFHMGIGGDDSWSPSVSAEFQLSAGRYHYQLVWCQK

[14] = target: T4, Delta-type opioid receptor; test: HTS Image-Based Screen for Antagonists of the DOR Receptor. [Related pubchem assays (depositor defined):AID1777, AID1785, AID1786, AID2133]; type: functional
[15] = target: T5, Kappa-type opioid receptor; type: functional; remark: listed apart in the source
[16] = target: G-protein coupled receptor 55 (Homo sapiens, UniProt Q9Y2T6); test: GPR55 agonists via beta-arrestin recruitment, primary screen, imaging, U2OS cells, beta-arrestin-GFP redistribution (AID 1961); type: functional
Sequence of G-protein coupled receptor 55 (Q9Y2T6 whole entry): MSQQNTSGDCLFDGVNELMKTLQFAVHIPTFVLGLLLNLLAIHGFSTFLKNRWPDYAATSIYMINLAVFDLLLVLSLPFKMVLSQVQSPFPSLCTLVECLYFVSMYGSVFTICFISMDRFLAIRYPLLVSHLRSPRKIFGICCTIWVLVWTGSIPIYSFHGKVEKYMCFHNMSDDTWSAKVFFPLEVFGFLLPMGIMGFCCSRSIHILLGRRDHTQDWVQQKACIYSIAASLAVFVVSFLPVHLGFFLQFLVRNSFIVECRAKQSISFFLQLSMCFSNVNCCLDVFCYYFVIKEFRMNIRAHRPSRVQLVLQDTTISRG

[17] = target: T6, Microphthalmia-associated transcription factor (Homo sapiens, UniProt O75030); test: TRPM1 promoter luciferase signal decrease, dose response, MITF inhibitor project, cell-based, SK-MEL-5, cherry-picked, set 3 (AID 493073); type: functional
T6 sequence (O75030 whole entry): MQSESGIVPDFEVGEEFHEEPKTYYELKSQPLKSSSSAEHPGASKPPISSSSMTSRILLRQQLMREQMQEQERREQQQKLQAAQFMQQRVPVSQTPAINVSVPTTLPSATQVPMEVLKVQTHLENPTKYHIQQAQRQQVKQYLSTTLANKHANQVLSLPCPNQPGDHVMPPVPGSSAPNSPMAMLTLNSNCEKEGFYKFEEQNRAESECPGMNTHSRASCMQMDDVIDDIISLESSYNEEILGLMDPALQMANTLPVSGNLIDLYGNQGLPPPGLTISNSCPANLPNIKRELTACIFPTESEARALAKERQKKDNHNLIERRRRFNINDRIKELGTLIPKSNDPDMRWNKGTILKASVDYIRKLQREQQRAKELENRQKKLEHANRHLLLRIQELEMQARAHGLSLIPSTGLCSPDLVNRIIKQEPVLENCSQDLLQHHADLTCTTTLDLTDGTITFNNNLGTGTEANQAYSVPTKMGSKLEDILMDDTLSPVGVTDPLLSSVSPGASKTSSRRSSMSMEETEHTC

T1 sequence (Q9Y2R2 whole entry): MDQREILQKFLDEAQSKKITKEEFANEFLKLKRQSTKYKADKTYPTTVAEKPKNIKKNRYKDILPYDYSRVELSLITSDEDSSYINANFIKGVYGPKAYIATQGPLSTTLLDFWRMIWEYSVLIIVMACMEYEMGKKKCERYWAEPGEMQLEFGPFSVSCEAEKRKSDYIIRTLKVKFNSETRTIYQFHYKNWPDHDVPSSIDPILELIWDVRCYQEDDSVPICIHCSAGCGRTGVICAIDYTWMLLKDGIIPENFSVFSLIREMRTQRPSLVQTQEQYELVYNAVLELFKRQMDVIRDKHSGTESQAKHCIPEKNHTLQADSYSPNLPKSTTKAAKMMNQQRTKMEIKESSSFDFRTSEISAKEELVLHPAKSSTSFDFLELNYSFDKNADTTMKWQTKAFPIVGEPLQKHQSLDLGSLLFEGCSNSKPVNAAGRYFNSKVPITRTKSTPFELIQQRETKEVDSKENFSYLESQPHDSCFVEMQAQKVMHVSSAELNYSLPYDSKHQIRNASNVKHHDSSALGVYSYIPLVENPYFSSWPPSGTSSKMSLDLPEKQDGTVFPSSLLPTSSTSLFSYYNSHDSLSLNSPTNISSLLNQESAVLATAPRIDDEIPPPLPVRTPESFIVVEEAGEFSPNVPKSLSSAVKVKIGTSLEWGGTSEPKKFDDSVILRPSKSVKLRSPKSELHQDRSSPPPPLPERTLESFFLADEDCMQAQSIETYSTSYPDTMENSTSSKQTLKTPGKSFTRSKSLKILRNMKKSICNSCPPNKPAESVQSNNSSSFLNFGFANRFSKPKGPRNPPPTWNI

| SMILES | IC50 [1] | IC50 [2] | IC50 [3] | EC50 [4] | EC50 [5] | EC50 [6] | EC50 [7] | EC50 [8] | EC50 [9] | IC50 [10] [µM] | EC50 [11] | EC50 [12] | EC50 [13] | IC50 [14] | IC50 [15] | EC50 [16] | AC50 [17] |
| --- | --- | --- | --- | --- | --- | --- | --- | --- | --- | --- | --- | --- | --- | --- | --- | --- | --- |
| CCOC(=O)c1cnc2c(Cl)c(Cl)ccc2c1NCCN1CCOCC1 | > 79.4 µM (inactive) | > 79.4 µM (inactive) | > 79.4 µM (inactive) |  |  |  |  |  |  |  |  |  |  |  |  |  |  |
| COc1ccc(C(=O)/C=C/C(=O)N(CC(=O)NC2CCCCC2)Cc2ccccc2)c(O)c1 |  |  |  | > 260 µM (inactive) | 1.64 µM (active) | > 32 µM (inactive) | > 120 µM (not active) | > 32 µM (inactive) | > 60 µM (inconclusive) | 8.34 | > 60 µM (not active) | 9.06 µM (active) | > 31.5 µM (inactive) | > 32 µM (inactive) | 4.97 µM (active) | > 32 µM (inactive) | 5.24 µM (active) |
